# What was measured:
# [1] = test system: advanced pancreatic cancers; settings: cited from earlier work
# From the text: Pancreatic carcinoma is the 9th most common human cancer in the Western world, including the USA, but it is the fourth leading cause of cancer death in both males and females. Its incidence has increased in the white population by about 1% per year between 1999 through 2008. Ductal carcinomas of the pancreas are very aggressive tumors, and because of the concealed location of the gland, they are mostly detected in late stages of development when surgical removal is not useful. Thus, the 5-year survival rate is below 5% and the median survival time after diagnosis is less than 6 mo ...
# [2] = test system: SW-1990 cancers; experiment: Experiment 2: SW-1990 tumor growth in nude mice; format: in vivo, human (xenograft in nude mice); settings: for Tumor volume (final): control 3464±838; for Tumor volume (final) / Tumor weights, solid tumor part: AN-152 and DOX P<0.05 vs. control; for Tumor weights, tumors with cysts: control 3729±921, AN-152 P<0.05 vs. control; for Tumor weights, solid tumor part: cut, fluid released, control 2473±636
# Method: (§1) Control and treatment groups were then selected at random.
# All compounds were administered iv.(at 6.9 μmol/kg) once weekly for 7 weeks. There were 10 animals per group. The experiment was terminated 65 days after the first treatment.
# [3] = test system: nitrosamine-induced pancreatic cancers; settings: hamsters; cited from earlier work
# From the text: Receptors for various peptide hormones are present in pancreatic cancers and these receptors can be utilized for both diagnostic and therapeutic purposes.. […] [15, 21] however, their function and importance is still unclear. The combined detection of mRNA for both LH-RH and LH-RH receptor in rat pancreatic cancer lines raised the possibility of an autocrine/paracrine role of LH-RH in these tumors. The findings that both estrogen and androgen receptors are likewise expressed in pancreati ...
# [4] = test system: Panc-1 cancers; experiment: Experiment 1: Panc-1 tumor growth in nude mice; format: in vivo, human (xenograft in nude mice); settings: AN-152 6.9 μmol/kg, DOX 2.5 μmol/kg
# Method: as §1
# (§2) In Experiment 1, nude mice with Panc-1 tumors were treated iv. on days 1, 8. […] There were 8 animals in each group. The experiment was terminated on day 82.
# [5] = Experiment 1: body and organ weights of mice; format: in vivo; settings: Experiment 1, nude mice with Panc-1; AN-152 6.9 μmol/kg, DOX 2.5 μmol/kg iv
# Method: as §1, §2
# [6] = Experiment 3: body and organ weights of mice; format: in vivo; settings: Experiment 3, nude mice with CFPAC-1; iv
# From the text: as §1
# [7] = test system: Panc-1 cancers; experiment: Human Cancer Pathway Finder PCR Array, Panc-1 tumors; format: in vivo, human (xenograft in nude mice)
# From the text: (§3) After isolating total RNA and protein from tumor samples from experiments 2, 3 and 4 by using the NucleoSpin kit (Macherey-Nagel, Bethlehem, PA, USA), the Human Cancer Pathway Finder Superarray and the Human Apoptosis RT Profiler PCR Array (Qiagen Inc. Valencia, CA, USA) were used to analyze 3 representative samples from each group for mRNA levels of genes related to cell adhesion, apoptosis, cell cycle, angiogenesis, signal transduction, invasion and metastasis. Quality control of RNA samples, synthesis of cDNA and RT-PCR arrays were performed as described. Gene expression data were examined using Excel based PCR Array Data Analysis Software provided by Qiagen; fold-changes in gene expression were calculated using the ΔΔCt method and five housekeeping genes (B2M, HPRT1, RPL13A, GAPDH, and ACTB) were used for normalization of the results.
# [8] = test system: SW-1990 tumors; experiment: Human Cancer Pathway Finder PCR Array, SW-1990 tumors; format: in vivo, human (xenograft in nude mice)
# From the text: as §3
# [9] = test system: CFPAC-1 cancers; experiment: Human Cancer Pathway Finder PCR Array, CFPAC-1 tumors; format: in vivo, human (xenograft in nude mice)
# From the text: as §3
# [10] = test system: three tumor lines (Panc-1, SW-1990, CFPAC-1); experiment: Human Cancer Pathway Finder PCR Array, three tumor lines together; format: in vivo, human (xenograft in nude mice)
# From the text: as §3
# [11] = test system: Panc-1 cancers; experiment: Human Apoptosis RT Profiler PCR Array, Panc-1; format: in vivo, human (xenograft in nude mice)
# From the text: as §3
# [12] = test system: SW-1990 tumors; experiment: Human Apoptosis RT Profiler PCR Array, SW-1990; format: in vivo, human (xenograft in nude mice)
# From the text: as §3
# [13] = test system: CFPAC-1 cancers; experiment: Human Apoptosis RT Profiler PCR Array, CFPAC-1; format: in vivo, human (xenograft in nude mice)
# From the text: as §3
# [14] = test system: CFPAC-1 cancers; experiment: Experiment 3: CFPAC-1 tumor growth in nude mice
# Method: Chemicals, unless stated otherwise, were purchased from Sigma (St. Louis, MO).
# Female athymic nude mice (Ncr nu/nu) were obtained from the National Cancer Institute (Frederick Cancer Research and Development Center, Frederick, MD), Charles River Laboratories International, Inc. (Durham, NC) and Harlan Laboratories (Tampa, FL) and maintained under pathogen-limited conditions. […] To produce tumor donor animals, 10^6 cells of each line were injected subcutaneously into 3 nude mice and grown until well-developed tumors were grown. The resulting tumors were removed, minced and 2 mm^3 pieces of tumor tissue were transplanted subcutaneously into each flank area of the experimental nude mice. When the tumors became measurable, the mice were divided into groups with nearly equal average tumor sizes. Control and treatment groups were then selected at random.
# The compounds were given iv. on days 1, 5, 8, 12, 15 and 30. There were 8 animals per group, and the experiment lasted to the 61st day of the treatment period.
# One-way ANOVA (Sigmaplot-11 software; Jandel Scientific, San Raphael, CA) was used for statistical evaluation of the data, and the groups were compared using Dunnett's method.
# [15] = test system: binding sites for LH-RH in nitrosamine-induced pancreatic cancers in hamsters; parameters: method as in PMID 15350601; settings: cited from earlier work
# [16] = SW-1990, 6.9 μmol/kg iv once weekly for 7 weeks, 10 animals/group, day 65, means ± SE
compound,measurement,setting,value
Nc1ccn([C@@H]2O[C@H](CO)[C@@H](O)C2(F)F)c(=O)n1 [gemcitabine],Clinical efficacy,"[1]; gemcitabine alone or in combination with 5-fluorouracil, radiation or erlotinib, advanced pancreatic cancers",minimal palliation
D-Trp^6LH-RH,Cystic/solid tumor (weight ratio),"[2]; SW-1990, 6.9 μmol/kg iv once weekly for 7 weeks, 10 animals/group, day 65, means ± SE, control 1.56±0.12, AN-152 P<0.05 vs. all other groups",1.56±0.11
same,Tumor volume (final),[2]; [16],2791±646 mm3
same,"Tumor weights, tumors with cysts",[2]; [16],3107 ± 696 mg
same,"Tumor weights, solid tumor part",[2]; [16],1862 ± 361 mg
same,Growth inhibition of nitrosamine-induced pancreatic cancers,[3],inhibits growth
"COc1cccc2c1C(=O)c1c(O)c3c(c(O)c1C2=O)C[C@@](O)(C(=O)CO)C[C@@H]3O[C@H]1C[C@H](N)[C@H](O)[C@H](C)O1 [DOX, doxorubicin]",Tumor volume (final),"[4]; Panc-1, iv days 1, 8, 15, 22, 33, 61, 8 animals/group, day 82, means ± SE, control 2040±1357, AN-152 P<0.05 vs. control",849±363 mm3
same,Growth inhibition (in words),"[4]; Panc-1 in nude mice, iv",only a moderate but not significant inhibitory effect
same,Solid tumor weights (in words),"[2]; SW-1990, 6.9 μmol/kg iv once weekly for 7 weeks",reduced
same,Tumor volume (final),[2]; [16],1213±381a mm3
same,"Tumor weights, tumors with cysts",[2]; [16],1496 ± 466 mg
same,"Tumor weights, solid tumor part",[2]; [16],585 ± 141 mg
same,Growth inhibition (in words),[2]; SW-1990 in nude mice,inhibitory effect on growth
same,Effect on body and organ weights,[5],Neither treatment had an effect on body and organ weights of the mice
same,Body weights,[6],"the lowest in the group receiving DOX, but the differences from control were statistically not significant"
same,Ovarian weights,[6],reduced
same,Expression of cell cycle control and DNA damage repair genes,[7],altered in both directions
same,Expression of genes associated with adhesion,[7]; treated vs control tumors,decreased
same,Expression of cell cycle control and DNA damage repair genes,[8],altered in both directions
same,Expression of genes associated with adhesion,[8]; treated vs control tumors,changed in both directions
same,Expression of cell cycle control and DNA damage repair genes,[9],only decreases
same,Expression of genes associated with adhesion,[9]; treated vs control tumors,decreased
same,Expression of genes related to invasion and metastasis,"[10]; all three tumor lines, treated vs control tumors",causing the stronger increases
same,TIMP3 expression,[10]; three tumor lines,strongly increased
same,Expression of genes related to signal transduction molecules and transcription factors,"[10]; three tumor lines, treated vs control tumors",caused considerable increases or decreases in some
same,Expression of apoptosis-associated genes,"[10]; three tumors, Cancer Pathway Finder array",variable in the three tumors after both treatments
same,Expression of anti-apoptotic genes,[11],mostly increased
same,Expression of pro-apoptotic genes,[11]; several genes,increased
same,Expression of anti-apoptotic genes,[12],mostly increased
same,Expression of pro-apoptotic genes,[12]; several genes,changed in both directions
same,Expression of anti-apoptotic genes,[13],decreased
same,Expression of pro-apoptotic genes,[13]; several genes,decreased
same,Tumor volume (in words),"[14]; iv days 1, 5, 8, 12, 15 and 30",moderate but not significant decrease
same,Tumor volume (final),"[14]; iv days 1, 5, 8, 12, 15 and 30, 8 animals/group, day 61, means ± SE, control 2502±769, AN-152 P<0.05 vs. control",1063±518 mm3
cetrorelix,Growth inhibition of nitrosamine-induced pancreatic cancers,[3],inhibits growth
FOLFIRINOX,Toxicity,"[1]; human, in vivo",highly toxic
LH-RH: hypothalamic peptide hormone,Affinity of binding sites for LH-RH,[15],moderate-affinity
